Reference: US6495376B1, “Methods and compositions for regulating protein-protein interactions” (Beth Israel Deaconess Medical Center, priority 1999, dated 2002)

What was measured:
[1] = molecular target: […] (Cdc25 Peptide, nonphosphorylated); test: GST-WW-domain incubated with peptide on a membrane, immunoblotting with GST antibody; type: binding
[2] = molecular target: EQPLpTPVTDL (Cdc25 Peptide); test: Fluorescence anisotropy binding to fluorescein-labeled phosphorylated Cdc25 peptide; conditions: GST-WW-domains
[3] = tested on: mitotically phosphorylated Cdc25C; test: GST pull down of phosphorylated Cdc25C and CIP dephosphorylation; type: binding; conditions: for protection of bound Cdc25C from dephosphorylation by CIP: Cdc25C precipitated on GST beads, then CIP; for binding to Cdc25C (in words): mitotic versus interphase phosphorylated form
Source text: To confirm that Nedd4 WW-domains bind a specific phosphoprotein in a phosphorylation-dependent manner interactions between Nedd4 WW-domains and Cdc25C were examined. To various degrees, all three Nedd4 WW-domains bound the mitotically phosphorylated form, but not the interphase phosphorylated form of both HeLa Cdc25C and in vitro synthesized Xenopus Cdc25C. […] The Kd values for the phosphopeptides were also lower than those for the Pro-rich peptide that was thought to be a Nedd4 WW-domain-binding site (Table 1) (Chen, H. I., et al., Proc. Natl. Acad. Sci. USA 92:7819 (1995); Staub, O., et al., EMBO J. 15:2371 (1996); Bedford, M. J., et al., EMBO J., 16:2376 (1997)).
Interactions between the WW-domain of Pin1 and specific phosphorylated ligands were examined. To detect phosphorylation-dependent interaction, Cdc25C, Plk1 and Pin1 ligands, were synthesized by in vitro transcription and translation in the presence of ^35S-Met and incubated with Xenopus interphase or mitotic extracts or mitotic extracts followed by treatment with calf intestine phosphatase (M+CIP). Protein complexes were separated on SDS-gels either directly (input) or first subjected to GST pull down with the N-terminal WW-domain (amino acids 1-54) or C-terminal PPIase domain (amino acids 47-163) or the entire Pin1 protein (Shen, M. et al., Genes & Dev 12:706 (1998)). The labeled protein-GST bead complexes were washed extensively and bound proteins analyzed by SDS-PAGE and autoradiography using standard techniques.
To determine whether WW-domain binding protects dephosphorylation of its targets ^35S labeled (His)6 epitope tagged Cdc25C was phosphorylated by mitotic extracts and precipitated by GST fusion protein beads or Ni-NTA beads. The isolated Cdc25C was then incubated with control buffer or CIP, followed by separation on SDS-containing gels and autoradiography.

[4] = tested on: MPM-2 antigens (mitotic phosphoproteins) of mitotic HeLa cell extracts; test: GST pulldown from mitotic HeLa cell extracts, MPM-2 immunoblotting (phosphoprotein-binding activity); conditions: for Phosphoprotein binding activity: GST-fusion proteins with mitotic extracts, MPM2 antibody; for binding to mitotic phosphoproteins / MPM-2 antigens (in words): mitotic HeLa cell extracts; for effect of phosphorylation by PKA on interaction with MPM2 antigens: protein phosphorylated by PKA before binding
Protocol: GST-fusion proteins containing the WW-domain, PPIase-domain or the entire Pin 1 protein were prepared and incubated with interphase (G1/S arrested; Control) or dividing (M phase) HeLa cell extracts using well-known procedures (Lu, K. P., et al., Nature 380:544 (1996); (Shen, M., et al., Genes & Devl. 12:706 (1998)). Briefly, HeLa cells were arrested at the G1/S boundary or mitosis by incubation with thymidine and aphidicolin or nocodazole for 16 h, respectively. The cells were lysed and supernatants incubated with 10 μl of agarose beads containing GST-Pin1; GST-WW-domain of Pin1; GST-PPIase domain of Pin1; or control GST for 2 h at 4° C. The phosphorylated precipitated proteins were washed 5 times in buffer containing 1% Triton X-100 before subjecting to immunoblotting analysis using MPM-2 antibody, as described previously (Yaffe, M. B. et al., Science 278:1957 (1997); Schukowski, et al., Biochemistry 37:5566 (1998); Shen, M. et al., Genes & Dev 12:706 (1998)). MPM-2 recognizes a subset of mitotic phosphoproteins including Pin1-binding proteins such as cdc25.
Pintide and its nonphosphorylated counterpart were synthesized and incubated with GST-Pin1 or the GST-WW-domain of Pin1 in a binding buffer, using established procedures (Shen, M. et al., Genes & Dev 12:706 (1998)). After a 1 hr incubation, mitotic HeLa cell extracts were added and subjected to GST pull down experiments, followed by immunoblotting analysis using the MPM-2 antibody. To obtain semi-quantitative data, films of immunoblots were scanned at the region of 55 kDa, the major Pin1-binding protein, and data analyzed using ImageQuan (ScanJet II CX). The peptide binding constants were measured using a fluorescence polarization assay (Jiskoot, W. et al., Anal Biochem 196:421 (1991)). Peptides were fluorescein labeled at the N-terminus using the Fluorescein Amine Labeling Kit (Pan Vera Corp.) and purified by TLC according to the manufacturer's […]. To prevent nonspecific labeling, a Pintide analogue (WFYpSPFLE) SEQ ID NO: 8 and the nonphosphorylated control were used. Various concentrations of Pin1 and its mutant proteins were incubated with 0.1 μM of the labeled peptides in a binding buffer containing 50 mM HEPES, pH 7.4, 100 mM NaCl, 2% glycerol. Fluorescence polarization values were obtained using a Pan Vera Beacon 2000 system, as described by the manufacturer.
To examine the effect of Pin1 phosphorylation on Pin1 binding to ligands, Pin1 and Pin1 mutant proteins were incubated with the catalytic subunit of PKA and PKC (a mixture of α, β and γ, UBI) in a kinase reaction buffer containing 500 μM cold ATP at 30° C. for 15 min (Lu, K. P. et al., Anal. Biochem. 196:421 (1991)). The reactions were stopped by adding SDS sample buffer and reaction products separated on SDS-gels, followed by autoradiography. Pin1 proteins were isolated and used to bind MPM-2 antigens from mitotic extracts from HeLa cells, as previously described (Shen, M., et al., Genes & Dev 12:706 (1998)). Experiments were also performed with PKA and PKC, casein kinase, cyclin B/Cdc2 and SRPK1 kinases.

[5] = tested on: neurofibrillary tangles in AD brain sections; test: Binding of recombinant Pin1 added onto brain sections, immunostaining; design: species or system human; conditions: Pin1 at 0.5 μM
Protocol: To further confirm that Pin1 has specific affinity for PHFs, recombinant Pin1 was added onto brain sections, washed, and then subjected to immunostaining using affinity purified Pin1 antibodies to localize bound Pin1. To localization exogenously added Pin1 in brain sections, 50 μm sections were cut from formalin fixed frontal cortex or hippocampus of human brains, endogenous peroxidase activity blocked with H2O2, followed by incubation with Pin1 at 0.5 μM. The sections were incubated with the mAb TG3 or anti-Pin1 antibodies that had been purified using GST-Pin1 glutathione beads, and visualized by the immunoperoxidase staining protocol, to detect endogenous Pin1, fixed brain sections were first microwaved in an antigen retrieval buffer (Biogenex), as described by the manufacturer, then subjected to immunostaining procedure.

Pin1 WW-domain: N-terminal WW-domain (amino acids 1-54) of Pin1 (MADEEKLPPGWEKRMSRSSGRVYYFNHITNASQWERPSGNSSSGGKNGQGEPAR; left off: a dimerising Fc or GST)
Kd (μM) Cdc25 Peptide EQPLTPVTDL [1]: N.B.*
Kd [2]: 2.2 µM
protection of bound Cdc25C from dephosphorylation by CIP [3]: CIP failed to dephosphorylate Cdc25C
binding to Cdc25C (in words) [3]: bound the phosphorylated Cdc25C in mitotic cell extracts, but not interphase extracts
Phosphoprotein binding activity [4]: + (binding was detected)
binding to mitotic phosphoproteins / MPM-2 antigens (in words) [4]: strong binding
effect of phosphorylation by PKA on interaction with MPM2 antigens [4]: completely abolished

Pin1: wild-type human prolyl isomerase (PPIase) Pin1 with N-terminal WW-domain; tag cleaved in Table 2
binding in AD brain sections [5]: strongly bound neurofibrillary tangles and neurites
protection of bound Cdc25C from dephosphorylation by CIP [3]: CIP failed to dephosphorylate Cdc25C
binding to Cdc25C (in words) [3]: bound the phosphorylated Cdc25C in mitotic cell extracts, but not interphase extracts
Phosphoprotein binding activity [4]: + (binding was detected)
binding to mitotic phosphoproteins / MPM-2 antigens (in words) [4]: strong binding
effect of phosphorylation by PKA on interaction with MPM2 antigens [4]: completely abolished
